Source: US11542240B2, “STK19 inhibitors for treatment of cancer” (TRUSTEES OF BOSTON UNIVERSITY, priority 2018, dated 2023)
Several values for one entry are separate records, joined by “and”; a condition that tells them apart may be missing. Identical values can stand only once.

What was measured:
Assay in all cases: biochemical
Assay type in all cases: binding
[1] = target: panel of 468 diverse kinases (Homo sapiens, UniProt Q14012); details: CAMK1; 1000 nM; read-out: Percent Control
[2] = target: panel of 468 diverse kinases (Homo sapiens, UniProt Q9P2K8, S808G); details: GCN2(Kin.Dom.2, S808G); 1000 nM; read-out: Percent Control
[3] = target: panel of 468 diverse kinases (Homo sapiens, UniProt Q6P2M8); details: CAMK1B; 1000 nM; read-out: Percent Control
[4] = target: panel of 468 diverse kinases (Homo sapiens, UniProt P53355); details: DAPK1; 1000 nM; read-out: Percent Control
[5] = target: panel of 468 diverse kinases (Homo sapiens, UniProt Q86UX6); details: YANK3; 1000 nM; read-out: Percent Control
[6] = target: panel of 468 diverse kinases (Homo sapiens, UniProt Q8IVH8); details: MAP4K3; 1000 nM; read-out: Percent Control
[7] = target: panel of 468 diverse kinases (Homo sapiens, UniProt P06241); details: FYN; 1000 nM; read-out: Percent Control
[8] = target: panel of 468 diverse kinases (Homo sapiens, UniProt P45983); details: JNK1; 1000 nM; read-out: Percent Control
[9] = target: panel of 468 diverse kinases (Homo sapiens, UniProt P07949, V804L); details: RET(V804L); 1000 nM; read-out: Percent Control
Chain of panel of 468 diverse kinases (Homo sapiens, UniProt P07949, V804L) (P07949 29-1114 V804L limits assumed): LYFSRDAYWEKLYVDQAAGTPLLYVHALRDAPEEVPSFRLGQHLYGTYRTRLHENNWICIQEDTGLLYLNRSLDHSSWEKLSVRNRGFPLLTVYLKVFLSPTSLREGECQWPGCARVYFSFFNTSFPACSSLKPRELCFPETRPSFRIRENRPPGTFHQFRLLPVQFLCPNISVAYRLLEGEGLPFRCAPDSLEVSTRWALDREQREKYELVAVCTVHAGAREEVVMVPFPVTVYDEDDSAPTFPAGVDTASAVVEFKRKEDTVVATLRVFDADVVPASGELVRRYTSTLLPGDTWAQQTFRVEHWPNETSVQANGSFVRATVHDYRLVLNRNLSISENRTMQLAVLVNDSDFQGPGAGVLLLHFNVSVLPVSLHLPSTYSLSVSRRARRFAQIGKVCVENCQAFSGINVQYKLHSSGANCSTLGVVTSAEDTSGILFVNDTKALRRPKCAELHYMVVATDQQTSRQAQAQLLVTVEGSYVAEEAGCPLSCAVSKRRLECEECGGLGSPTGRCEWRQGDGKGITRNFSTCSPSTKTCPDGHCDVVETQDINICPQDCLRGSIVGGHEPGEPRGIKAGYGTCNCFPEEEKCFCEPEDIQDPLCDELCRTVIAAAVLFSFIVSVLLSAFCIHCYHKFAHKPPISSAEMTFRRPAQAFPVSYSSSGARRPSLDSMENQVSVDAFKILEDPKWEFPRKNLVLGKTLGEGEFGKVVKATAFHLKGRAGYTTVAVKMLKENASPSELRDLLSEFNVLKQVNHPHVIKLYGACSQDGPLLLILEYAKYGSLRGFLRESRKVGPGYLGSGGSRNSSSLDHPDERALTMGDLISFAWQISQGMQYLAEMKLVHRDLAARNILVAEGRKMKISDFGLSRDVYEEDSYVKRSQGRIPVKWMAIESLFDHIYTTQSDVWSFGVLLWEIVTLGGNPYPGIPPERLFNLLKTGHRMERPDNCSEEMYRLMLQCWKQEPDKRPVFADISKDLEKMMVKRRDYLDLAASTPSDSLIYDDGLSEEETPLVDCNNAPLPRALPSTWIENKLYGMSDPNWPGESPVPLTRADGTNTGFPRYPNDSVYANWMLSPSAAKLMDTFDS

[10] = target: panel of 468 diverse kinases (Homo sapiens, UniProt Q9BQI3); details: EIF2AK1; 1000 nM; read-out: Percent Control
[11] = target: panel of 468 diverse kinases (Homo sapiens, UniProt Q9H422); details: HIPK3; 1000 nM; read-out: Percent Control
[12] = target: panel of 468 diverse kinases (Homo sapiens, UniProt Q96GD4); details: AURKB; 1000 nM; read-out: Percent Control
[13] = target: panel of 468 diverse kinases (Homo sapiens, UniProt Q13546); details: RIPK1; 1000 nM; read-out: Percent Control
[14] = target: panel of 468 diverse kinases (Homo sapiens, UniProt P53667); details: LIMK1; 1000 nM; read-out: Percent Control
[15] = target: panel of 468 diverse kinases (Homo sapiens, UniProt O95819); details: MAP4K4; 1000 nM; read-out: Percent Control
Chain of panel of 468 diverse kinases (Homo sapiens, UniProt O95819) (O95819 2-1239 limits assumed): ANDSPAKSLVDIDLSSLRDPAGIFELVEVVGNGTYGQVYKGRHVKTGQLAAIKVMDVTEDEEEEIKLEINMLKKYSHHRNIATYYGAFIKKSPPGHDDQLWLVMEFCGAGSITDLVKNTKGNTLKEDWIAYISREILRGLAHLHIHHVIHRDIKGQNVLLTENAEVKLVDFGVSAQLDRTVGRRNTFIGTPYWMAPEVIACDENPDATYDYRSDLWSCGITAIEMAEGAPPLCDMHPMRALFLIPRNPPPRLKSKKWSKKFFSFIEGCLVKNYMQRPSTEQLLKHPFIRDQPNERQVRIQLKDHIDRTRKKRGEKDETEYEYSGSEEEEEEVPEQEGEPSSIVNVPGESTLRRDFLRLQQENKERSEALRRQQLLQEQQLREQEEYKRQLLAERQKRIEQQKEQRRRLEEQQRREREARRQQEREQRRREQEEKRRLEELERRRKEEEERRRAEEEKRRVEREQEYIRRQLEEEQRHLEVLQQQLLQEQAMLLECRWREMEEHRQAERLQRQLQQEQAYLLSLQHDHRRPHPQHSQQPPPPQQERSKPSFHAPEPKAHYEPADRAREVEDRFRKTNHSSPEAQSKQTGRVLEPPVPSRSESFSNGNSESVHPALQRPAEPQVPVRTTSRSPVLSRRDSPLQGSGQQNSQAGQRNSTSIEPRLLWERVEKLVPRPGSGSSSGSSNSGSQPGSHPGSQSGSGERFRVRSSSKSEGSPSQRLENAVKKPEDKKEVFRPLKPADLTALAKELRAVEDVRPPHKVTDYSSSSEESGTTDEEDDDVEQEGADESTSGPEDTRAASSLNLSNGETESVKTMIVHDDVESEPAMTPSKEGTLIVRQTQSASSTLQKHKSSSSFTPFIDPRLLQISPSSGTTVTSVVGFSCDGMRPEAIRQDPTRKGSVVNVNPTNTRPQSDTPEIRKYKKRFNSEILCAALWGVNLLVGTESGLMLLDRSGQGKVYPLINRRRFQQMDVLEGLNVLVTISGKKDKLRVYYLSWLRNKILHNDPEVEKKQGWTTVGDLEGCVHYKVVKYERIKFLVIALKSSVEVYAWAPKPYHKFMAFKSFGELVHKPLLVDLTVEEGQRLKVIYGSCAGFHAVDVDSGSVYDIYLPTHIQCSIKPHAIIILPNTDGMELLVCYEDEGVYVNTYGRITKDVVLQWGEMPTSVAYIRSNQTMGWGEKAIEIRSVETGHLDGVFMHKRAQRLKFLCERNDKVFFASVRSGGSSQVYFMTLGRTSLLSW

[16] = target: panel of 468 diverse kinases (Homo sapiens, UniProt Q8WU08); details: YANK1; 1000 nM; read-out: Percent Control
Chain of panel of 468 diverse kinases (Homo sapiens, UniProt Q8WU08) (Q8WU08 2-396 limits assumed): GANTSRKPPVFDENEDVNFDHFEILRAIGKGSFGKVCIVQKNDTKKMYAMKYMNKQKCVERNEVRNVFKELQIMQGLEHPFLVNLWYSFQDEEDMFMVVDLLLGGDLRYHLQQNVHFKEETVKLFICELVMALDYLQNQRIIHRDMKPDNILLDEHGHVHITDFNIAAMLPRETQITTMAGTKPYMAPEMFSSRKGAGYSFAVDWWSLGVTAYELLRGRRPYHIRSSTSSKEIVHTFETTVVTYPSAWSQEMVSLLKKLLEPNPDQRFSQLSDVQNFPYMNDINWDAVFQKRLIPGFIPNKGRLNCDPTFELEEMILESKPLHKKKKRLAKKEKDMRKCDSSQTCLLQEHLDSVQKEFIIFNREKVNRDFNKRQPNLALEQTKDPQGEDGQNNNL

[17] = target: panel of 468 diverse kinases (Homo sapiens, UniProt P36888, K663Q); details: FLT3(K663Q); 1000 nM; read-out: Percent Control
[18] = target: panel of 468 diverse kinases (Homo sapiens, UniProt Q8IW41); details: MAPKAPK5; 1000 nM; read-out: Percent Control
[19] = target: panel of 468 diverse kinases (Homo sapiens, UniProt Q16288); details: TRKC; 1000 nM; read-out: Percent Control
[20] = target: panel of 468 diverse kinases (Homo sapiens, UniProt P11362); details: FGFR1; 1000 nM; read-out: Percent Control
[21] = target: panel of 468 diverse kinases (Homo sapiens, UniProt Q9UM73); details: ALK; 1000 nM; read-out: Percent Control
Chain of panel of 468 diverse kinases (Homo sapiens, UniProt Q9UM73) (Q9UM73 19-1620 limits assumed): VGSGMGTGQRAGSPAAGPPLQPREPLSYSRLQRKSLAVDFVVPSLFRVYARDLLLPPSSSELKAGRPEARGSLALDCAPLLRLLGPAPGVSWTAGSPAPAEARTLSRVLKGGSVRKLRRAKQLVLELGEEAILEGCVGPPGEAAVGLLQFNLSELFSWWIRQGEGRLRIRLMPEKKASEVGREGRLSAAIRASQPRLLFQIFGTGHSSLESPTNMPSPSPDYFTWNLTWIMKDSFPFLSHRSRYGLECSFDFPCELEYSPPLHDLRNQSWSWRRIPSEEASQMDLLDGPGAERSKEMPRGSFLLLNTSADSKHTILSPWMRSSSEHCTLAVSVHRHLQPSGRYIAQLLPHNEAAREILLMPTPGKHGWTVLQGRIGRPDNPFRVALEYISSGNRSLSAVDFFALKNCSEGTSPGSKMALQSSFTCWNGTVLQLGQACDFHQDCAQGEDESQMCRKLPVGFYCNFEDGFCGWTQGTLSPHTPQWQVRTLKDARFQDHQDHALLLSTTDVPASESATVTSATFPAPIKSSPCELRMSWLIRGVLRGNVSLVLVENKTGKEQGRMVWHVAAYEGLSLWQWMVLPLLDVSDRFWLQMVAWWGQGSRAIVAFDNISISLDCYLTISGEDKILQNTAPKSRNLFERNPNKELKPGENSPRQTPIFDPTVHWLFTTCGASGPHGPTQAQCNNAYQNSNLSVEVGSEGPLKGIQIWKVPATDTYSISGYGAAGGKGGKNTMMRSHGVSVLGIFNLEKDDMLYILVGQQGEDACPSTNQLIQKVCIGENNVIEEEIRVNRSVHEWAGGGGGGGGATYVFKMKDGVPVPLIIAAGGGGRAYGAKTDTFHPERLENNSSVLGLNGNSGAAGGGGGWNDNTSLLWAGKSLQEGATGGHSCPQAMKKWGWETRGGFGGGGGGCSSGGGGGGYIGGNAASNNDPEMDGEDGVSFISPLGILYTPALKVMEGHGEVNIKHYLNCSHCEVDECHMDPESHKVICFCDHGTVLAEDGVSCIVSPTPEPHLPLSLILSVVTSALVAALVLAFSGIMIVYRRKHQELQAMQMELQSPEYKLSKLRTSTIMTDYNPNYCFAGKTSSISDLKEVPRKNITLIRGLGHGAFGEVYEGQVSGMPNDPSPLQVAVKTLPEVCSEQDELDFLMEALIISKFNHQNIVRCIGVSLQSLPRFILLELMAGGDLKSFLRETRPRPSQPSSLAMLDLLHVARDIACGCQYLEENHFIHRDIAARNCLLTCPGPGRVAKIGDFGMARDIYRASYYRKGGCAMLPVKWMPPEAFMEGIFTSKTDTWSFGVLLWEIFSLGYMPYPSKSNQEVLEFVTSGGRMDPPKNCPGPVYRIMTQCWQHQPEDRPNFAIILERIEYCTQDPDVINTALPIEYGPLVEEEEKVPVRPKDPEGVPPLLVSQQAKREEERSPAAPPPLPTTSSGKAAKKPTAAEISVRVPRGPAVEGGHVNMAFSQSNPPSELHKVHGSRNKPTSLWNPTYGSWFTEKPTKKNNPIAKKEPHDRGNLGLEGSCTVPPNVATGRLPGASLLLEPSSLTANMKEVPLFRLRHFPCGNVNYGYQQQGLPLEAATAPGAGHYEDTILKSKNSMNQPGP

[22] = target: panel of 468 diverse kinases (Homo sapiens, UniProt Q00532); details: CDKL1; 1000 nM; read-out: Percent Control
[23] = target: panel of 468 diverse kinases (Homo sapiens, UniProt Q16539); details: p38-alpha; 1000 nM; read-out: Percent Control
Chain of panel of 468 diverse kinases (Homo sapiens, UniProt Q16539) (Q16539 2-360 limits assumed): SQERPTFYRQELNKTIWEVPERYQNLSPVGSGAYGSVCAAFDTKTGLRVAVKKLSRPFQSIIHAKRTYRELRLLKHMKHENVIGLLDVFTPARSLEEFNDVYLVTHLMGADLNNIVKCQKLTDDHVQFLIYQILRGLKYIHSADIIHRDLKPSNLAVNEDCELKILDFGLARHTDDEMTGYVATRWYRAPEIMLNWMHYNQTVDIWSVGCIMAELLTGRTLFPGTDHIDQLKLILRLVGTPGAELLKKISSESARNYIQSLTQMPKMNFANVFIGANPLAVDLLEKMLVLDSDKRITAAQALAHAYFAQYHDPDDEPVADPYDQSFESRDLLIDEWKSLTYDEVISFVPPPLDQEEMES

[24] = target: panel of 468 diverse kinases (Homo sapiens, UniProt O75914); details: PAK3; 1000 nM; read-out: Percent Control
[25] = target: panel of 468 diverse kinases (Homo sapiens, UniProt Q9P286); details: PAK7; 1000 nM; read-out: Percent Control
[26] = target: panel of 468 diverse kinases (Homo sapiens, UniProt Q9H2G2); details: SLK; 1000 nM; read-out: Percent Control
[27] = target: panel of 468 diverse kinases (Homo sapiens, UniProt P42336, H1047Y); details: PIK3CA(H1047Y); 1000 nM; read-out: Percent Control
[28] = target: panel of 468 diverse kinases (Homo sapiens, UniProt O14730); details: RIOK3; 1000 nM; read-out: Percent Control
[29] = target: panel of 468 diverse kinases (Homo sapiens, UniProt P08922); details: ROS1; 1000 nM; read-out: Percent Control
[30] = test system: panel of 468 diverse kinases
[31] = target: panel of 468 diverse kinases (Homo sapiens, UniProt O15146); details: MUSK; 1000 nM; read-out: Percent Control

**Q.** For `COc1cc2nc(NC3CC3)nc(NC3CCN(C(C)C)CC3)c2cc1OC` [Formula IV], which remaining activity at 1 µM [1] is on record?
**A.** 91%

**Q.** And the remaining activity at 1 µM [2]?
**A.** 94%

**Q.** What about the remaining activity at 1 µM [3] of the same compound?
**A.** 59%

**Q.** What about the remaining activity at 1 µM [4] of the same compound?
**A.** 99%

**Q.** What about the remaining activity at 1 µM [5] of the same compound?
**A.** 94%

**Q.** And the remaining activity at 1 µM [6]?
**A.** 91%

**Q.** And the remaining activity at 1 µM [7]?
**A.** 100%

**Q.** What about the remaining activity at 1 µM [8] of the same compound?
**A.** 52%

**Q.** And the remaining activity at 1 µM [9]?
**A.** 75%

**Q.** And the remaining activity at 1 µM [10]?
**A.** 73%

**Q.** And the remaining activity at 1 µM [11]?
**A.** 61%

**Q.** What about the remaining activity at 1 µM [12] of the same compound?
**A.** 84%

**Q.** What about the remaining activity at 1 µM [13] of the same compound?
**A.** 87%

**Q.** And the remaining activity at 1 µM [14]?
**A.** 100%

**Q.** What about the remaining activity at 1 µM [15] of the same compound?
**A.** 100%

**Q.** And the remaining activity at 1 µM [16]?
**A.** 95%

**Q.** What about the remaining activity at 1 µM [17] of the same compound?
**A.** 98%

**Q.** And the remaining activity at 1 µM [18]?
**A.** 63%

**Q.** And the remaining activity at 1 µM [19]?
**A.** 53%

**Q.** What about the remaining activity at 1 µM [20] of the same compound?
**A.** 100%

**Q.** What about the remaining activity at 1 µM [21] of the same compound?
**A.** 61%

**Q.** And the remaining activity at 1 µM [22]?
**A.** 53%

**Q.** What about the remaining activity at 1 µM [23] of the same compound?
**A.** 100%

**Q.** What about the remaining activity at 1 µM [24] of the same compound?
**A.** 71%

**Q.** What about the remaining activity at 1 µM [25] of the same compound?
**A.** 92%

**Q.** And the remaining activity at 1 µM [26]?
**A.** 100%

**Q.** And the remaining activity at 1 µM [27]?
**A.** 91%

**Q.** What about the remaining activity at 1 µM [28] of the same compound?
**A.** 100%

**Q.** What about the remaining activity at 1 µM [29] of the same compound?
**A.** 90%

**Q.** And the “Percent Control” value [30]?
**A.** 98% and 49% and 80% and 92% and 56% and 57%

**Q.** And the “kinase selectivity using KINOMEscan” value [30]?
**A.** extremely high kinase selectivity

**Q.** And the remaining activity at 1 µM [31]?
**A.** 83%
